{"source": "patent US20260258054A1", "about": "“SMALL MOLECULE FOR TREATMENT OF CANCER OF THE APPENDIX” (The Regents of the University of California, priority 2022, published 2026)", "key": {"[1]": {"system": "KM12 GNAS^352delG organoids", "assay": "3D organoid growth, KM12 GNAS knockout (GNAS^352delG) organoids", "format": "cell-based, human", "settings": "supplementation of organoid cultures with conditioned medium", "method": "(§1) FIGS. 4A-4C: GNAS signals through the CAMP-PKA axis. (FIG. 4A), KM12 GNAS^R201H and GNAS^352delG cells were treated with forskolin (0-250 μM) for 15 min. Following the treatment, cells were lysed, and cAMP levels were measured as described in the methods. (FIG. 4B), LS174T GNAS^R201H cells were treated with and without doxycycline, and cAMP levels measured after induction with forskolin (0-2.5 μM) for 15 min. (FIG. 4C), KM12 GNAS^R201H and GNAS^352delG organoids were grown in 3D-matrigel domes and treated with the PKA inhibitor H-89 (60 μM) for 10 days.\nFIGS. 5A-5F: β-catenin is a downstream mediator of mutant GNAS signaling. (FIG. 5A), Top 10 hallmark genesets from the KM12 GNAS^KO-pool and LS174T GNAS overexpression datasets were selected and overlapping genesets were plotted. (FIG. 5B), Ratio of pT41/S45 phosphoβ-catenin/β-catenin based on the RPPA analysis results. (FIG. 5C), Immunohistochemistry (IHC) staining of β-catenin in LS174T dox (−) and dox (+) tissues from intraperitoneal mouse tumors. (FIG. 5D), Quantification of IHC tumors showing % of cells staining positive of β-catenin. (FIG. 5E), Quantification of the cytoplasmic and nuclear distribution of β-catenin based on IHC staining. (FIG. 5F), Effect of LF3 (β-catenin inhibitor) on the growth of KM12 (GNAS^R201H and GNAS^352delG) organoids. DMSO (0.2%) was used as control treatment and organoids were cultured for 10 days.\nFIGS. 9A-9B: Wnt stimulation rescued growth of GNAS knockout organoids. (FIG. 9A), 3D growth of KM12 GNAS knockout organoids after supplementation with Wnt3a or R-spondin conditioned medium. (FIG. 9B), Quantification of growth by measuring total colony area (%).\n(§2) KM12 and LS174T cells were suspended with Matrigel (BD) at 100 cells/μL and plated as 5 μL droplets onto 96-well multi-well culture plates. The plates were incubated at 37° C. for 15 min. […] The plates were placed in the cell imaging multi-mode plate reader Cytation™ 5 (Biotek, Winooski, VT) at 37° C. in an atmosphere supplemented with 5% CO2. […] The numbers and total area of organoids were calculated."}, "[2]": {"system": "LS174T GNAS^R201H cells", "assay": "cAMP levels, LS174T cells overexpressing GNAS^R201H", "format": "cell-based, human", "settings": "forskolin 0-2.5 μM, 15 min; doxycycline induced", "method": "as §1"}, "[3]": {"system": "SNU-175 cells (GNAS^R201C)", "assay": "Incucyte viability (confluence), SNU-175 cells", "format": "cell-based, human", "method": "(§3) Viability was measured over time but determining cell confluence in experimental well using Incucyte Live-Cell Analysis system (Sartorius). JVS-324 was added in increasing concentrations and cell growth monitored for 72 hours. Confluency evaluation was normalized time point zero. An isogenic paired cell line was created by using CRISPR-Cas9 to knockout (KO) GNAS from the SNU-175 cell line; this model system has been previously described (Oncogene. 2022 August; 41 (35):4159-4168).\n(§4) Viability was measured over time but determining cell confluence in experimental well using Incucyte Live-Cell Analysis system (Sartorius); two experiments performed. […] (FIG. 26)."}, "[4]": {"system": "GNAS KO SNU-175", "assay": "Incucyte viability (confluence), GNAS KO SNU-175 cells", "format": "cell-based, human", "method": "as §3, §4"}, "[5]": {"system": "SNU-175 (GNAS^R201C CRC cell line)", "assay": "cAMP-Glo assay, SNU-175 cells", "format": "cell-based, human", "method": "(§5) A study was conducted to examine the effect of compound GE3 as a Gαs Inhibitor. Cells were treated with compound GE3 at high (1-5 mM) and low (0-0.5 mM) doses for 20 hours. cAMP levels were measured using the CAMP-Glo™ Assay (Promega). An isogenic paired cell line was created by using CRISPR-Cas9 to knockout (KO) GNAS from the SNU-175 cell line; this model system has been previously described (Oncogene. 2022 August; 41(35):4159-4168).\n(§6) The same experimental system was used as above to test lower doses of GE3."}, "[6]": {"system": "GNAS KO isogenic paired cell line of SNU-175", "assay": "cAMP-Glo assay, GNAS KO SNU-175 cells", "format": "cell-based, human", "settings": "mM doses (1-5 mM), 20 hours", "method": "as §5, §6"}, "[7]": {"system": "KM12 GNAS^R201H organoids", "assay": "3D organoid growth, KM12 GNAS^R201H organoids", "format": "cell-based, human", "settings": "H-89 60 μM, 10 days, vs. DMSO control, p=0.004", "method": "as §1\nFIGS. 5A-5F: β-catenin is a downstream mediator of mutant GNAS signaling. (FIG. 5A), Top 10 hallmark genesets from the KM12 GNAS^KO-pool and LS174T GNAS overexpression datasets were selected and overlapping genesets were plotted. […] (FIG. 5D), Quantification of IHC tumors showing % of cells staining positive of β-catenin. (FIG. 5E), Quantification of the cytoplasmic and nuclear distribution of β-catenin based on IHC staining. […]\nas §2, with “plates.” for “plates. The plates were incubated at 37° C. for 15 min.”"}, "[8]": {"system": "MEK regulated genes", "assay": "RNAseq analysis of post-treatment samples from trial NCT03108131 in appendiceal cancer", "format": "in vivo", "settings": "cobimetinib with atezolizumab, three post-treatment samples"}}, "note": "Entries after “also recorded” stand apart in the source; their conditions may differ.", "data": [{"compound": "Wnt3a", "values": [{"measurement": "rescue of organoid growth of GNAS-knockout cells", "setting": "[1]", "result": "rescued organoid growth"}, {"measurement": "rescue of organoid growth of GNAS-knockout cells", "setting": "[1]; listed as WNT3A", "result": "can be rescued"}, {"measurement": "rescue of organoid growth of GNAS-knockout cells", "setting": "[1]; listed as Wnt3A", "result": "rescue GNAS knockout"}]}, {"compound": "C=C[C@@]1(C)CC(=O)[C@]2(O)[C@@]3(C)[C@@H](O)CCC(C)(C)[C@@H]3[C@H](O)[C@H](OC(C)=O)[C@@]2(C)O1", "note": "[forskolin]", "values": [{"measurement": "effect of forskolin on basal levels of cAMP", "setting": "[2]", "result": "no effect"}]}, {"compound": "CCC(CC)COC(=O)[C@H](C)NP(=O)(OC[C@H]1O[C@@H](n2cnc3c(=O)[nH]c(N)nc32)[C@@H]2O[C@@H]21)Oc1ccccc1", "note": "(stereo partly drawn) [GE3]", "values": [{"measurement": "dose by which growth was comparable to the level in the KO cells", "setting": "[3]", "result": 0.01, "unit": "mM"}, {"measurement": "cell growth / viability", "setting": "[3]; GE3, lower doses", "result": "dose-dependent fashion; also recorded: decreased viability"}, {"measurement": "cell growth", "setting": "[3]; GE3 at mM doses", "result": "significantly reduced growth"}, {"measurement": "cell growth", "setting": "[3]; GE3 by 1 mM", "result": "essentially no growth"}, {"measurement": "IC50", "setting": "[3]; Homo sapiens, read-out: IC50 in viability assay", "result": 105, "unit": "µM"}, {"measurement": "cell growth", "setting": "[4]; GE3 at mM doses", "result": "significantly reduced growth"}, {"measurement": "cell growth", "setting": "[4]; GE3 by 1 mM", "result": "essentially no growth"}, {"measurement": "potency relative to JVS-324 (cAMP)", "setting": "[5]", "result": "significantly more potent"}, {"measurement": "dose by which cAMP level was comparable to the level in the KO cells", "setting": "[5]; 20 hours", "result": 0.01, "unit": "mM"}, {"measurement": "cAMP levels", "setting": "[5]; lower doses (0-0.5 mM), 20 hours", "result": "dose-dependent fashion; also recorded: inhibits cAMP production"}, {"measurement": "cAMP levels", "setting": "[5]; mM doses (1-5 mM), 20 hours", "result": "significantly reduced CAMP; also recorded: inhibits cAMP production"}, {"measurement": "cAMP levels", "setting": "[6]", "result": "significantly reduced CAMP"}]}, {"compound": "O=S(=O)(NCCNC/C=C/c1ccc(Br)cc1)c1cccc2cnccc12", "note": "[Compound H-89]", "values": [{"measurement": "reduced the growth of KM12 organoids", "setting": "[7]", "result": 79, "unit": "%"}]}, {"compound": "O=C(c1ccc(F)c(F)c1Nc1ccc(I)cc1F)N1CC(O)([C@@H]2CCCCN2)C1", "note": "[cobimetinib]", "values": [{"measurement": "expression of MEK regulated genes", "setting": "[8]", "result": "not down regulated"}]}]}
